Laboratory results reported in article PMC9503446, “Effects of Medicinal Leech-Related Cationic Antimicrobial Peptides on Human Blood Cells and Plasma” (Molecules, 2022).
In brackets after ≈: the same amount, converted by molar mass. Residues, ends and D or L forms follow the SMILES beside them. No end group written: not given here.

Key:
[1] = test system: Escherichia coli; settings: cited from earlier work
Excerpt: Table 1 Cationic antimicrobial peptides (CAMPs) used in this study and their characteristics. | column: MIC, μM (E. coli)

[2] = test system: blood plasma coagulation (extrinsic and common pathways); test: Plasma coagulation assay, prothrombin time (PT); parameters: species or system human; settings: for Effect on PT: 25, 50, 100 μM peptide in plasma; for PT increase compared to control: 15 min pre-incubation at room temperature
Protocol: (§1) Plasma samples (50 μL) were incubated for 15 min at room temperature with 0, 25, 50 or 100 μM CAMP, and then the coagulation assay steps were carried out according the manufacturer’s instructions.
(§2) The plasma coagulation tests were performed using an APG4-03-Pkh hemostasis analyzer (EMCO Llc, Moscow, Russia) and MLT-APTT and MLT-THROMBOPLASTIN reagent kits (MLT Llc, Moscow, Russia) according to the manufacturer’s instructions. Testing was performed on Plasma N (normal), a mixed pool of citrate anticoagulated plasma obtained from healthy donors, manufactured by RENAM Rpd, Moscow, Russia. Fifty microliter plasma samples supplemented with CAMPs at different concentrations (or with PBS as control) were pre-incubated at room temperature for 15 min. Afterward, in case of measuring activated partial thromboplastin time (APTT), 50 μL of APTT Reagent were added. The samples were warmed at 37 °C for 3 min, and 50 μL of Calcium Chloride Solution were added to initiate fibrin clot formation. For measuring prothrombin time (PT), pre-incubated plasma samples were warmed at 37 °C for 1 min, and fibrin clot formation was triggered by adding 100 μL of Thromboplastin Reagent.

[3] = test system: blood plasma coagulation (intrinsic and final common pathways); test: Plasma coagulation assay, activated partial thromboplastin time (APTT); parameters: species or system human; settings: for APTT prolongation versus control: 15 min pre-incubation at room temperature; for APTT change from the control value: 25, 50, 100 μM peptide in plasma
Protocol: as §1, §2

[4] = test system: isolated neutrophils; test: Luminol-dependent chemiluminescence, neutrophil respiratory burst; type: cell-based, human; settings: for Neutrophil respiratory burst (luminol-dependent chemiluminescence) in response to peptide-pretreated plasma: final peptide 5 μM or 20 μM, final plasma dilution 1:50, 37 °C
Protocol: Neutrophils and plasma were obtained from the same person. Plasma diluted five times in complete Krebs–Ringer buffer solution was treated with 50 μM or 200 μM CAMP, with plasma dilution and CAMP concentrations being the same as in the samples for hemolysis assay. The final plasma content in samples for CL measurement was restricted to no higher than 2%, since plasma constituents can inhibit luminol-dependent CL due to the scavenging effect. Following the addition of luminol to neutrophils, light emission recording was started. Spontaneous cell activation, if it occurred, was allowed to complete, and then the CAMP-containing plasma or control plasma was added (Figure 6), yielding a final plasma dilution of 1:50 and a final CAMP concentration of 5 μM or 20 μM. […] The effect was dose-dependent (Figure 6).
Chemiluminescence study was conducted at 37 °C with a Lum-1200 chemiluminometer (DISoft Llc, Moscow, Russia) measuring the intensity of emitted light in volts. Assays were performed with the following components in a total volume of 500 μL:435 μL of neutrophil suspension (final, 0.5 × 10^6 cells/mL) in complete Krebs–Ringer buffer solution, 10 μL of luminol (final, 200 μM), 50 μL of five-fold diluted (in the above buffer solution) autologous plasma containing or not containing CAMP at a desired concentration, 5 μL of PMA (final, 160 nM).
Neutrophils were placed in chemiluminometer cuvettes and equilibrated at 37 °C in the cuvette holder, after which luminol was added to each sample and the light emission was continuously recorded. In desired time intervals, plasma mixed with CAMP (or control plasma) and then PMA were added.

[5] = test system: neutrophils in whole blood; test: Neutrophil extracellular trap (NET) assay in whole blood; type: cell-based, human; settings: for NET concentration versus control blood: 100 μM peptide, ex vivo blood, 3 h, 37 °C, no PMA
Protocol: EDTA-anticoagulated capillary blood was obtained via a finger prick. Blood aliquots of 20 μL were placed in 1.5 mL Eppendorf tubes and mixed with 2 μL of a CAMP solution (or 2 μL of PBS in controls). The samples were incubated for 3 h. After the first 1 h, PMA (100 nM final concentration) was added to a part of them, and incubation continued for a further 2 h. Cell settling was prevented by continuous gentle turning the tubes up and down using a Multi Bio RS-24 rotator (Biosan, Riga, Latvia). The blood was retained at the tube bottom by surface tension.
NET counts were performed using standardized blood smears stained by Romanowsky method. The smears were examined using a Motic B microscope (Motic, Xiamen, China). Quantitative assessment of NETs was performed as described previously. NETs among 300–500 leukocytes were counted in the middle third part of the smear, and the NETs-to-leukocyte percentage ratio was calculated. Based on counting results, the number of NETs in 1 μL of blood was calculated. In each experiment, two parallel samples were prepared and three parallel smears were taken from each at each observation point.

[6] = test system: erythrocytes; test: Morphological observation of isolated erythrocytes (aggregation); type: cell-based, human
Protocol: Pept_3 stood out from the other four CAMPs in that it not only lysed, but also aggregated cells. An erythrocyte aggregate formed is illustrated by Figure 2. Samples for morphological observation of erythrocytes were the same as those for hemolysis assay. After incubation at 37 °C for 0.5 h, the samples were processed to fix with glutaraldehyde for qualitative morphological evaluation with light microscopy. A glutaraldehyde fixation method was applied for isolated cells to prevent damage that can occur during preparing smears, which are good for cells in blood.
Samples for morphological observation of erythrocytes were the same as those for hemolysis assay. After incubation at 37 °C for 0.5 h, the samples were centrifuged at 100× g for 5 min, following which the supernatant was removed and the cells fixed by resuspending them in 0.5 mL of 1% glutaraldehyde solution in PBS. Then, erythrocytes were left for 3 h at room temperature, with regular mixing. The fixed cells were stored at 4 °C until use. The supernatant over settled cells was withdrawn, and a cell aliquot was placed in a small workspace cut in the piece of scotch tape put on a microscope slide. Images were examined using a Motic B light microscope (Motic, Xiamen, China).

[7] = test system: neutrophils; test: LDH release cytolysis assay, neutrophils; settings: 50 μM peptide, PBS, 0.5 h, 37 °C; Lysis solution = 100%
Protocol: (§3) The disruptive effect of peptides on the plasma membrane of mononuclear cells and neutrophils was evaluated by the leakage of lactate dehydrogenase (LDH) from damaged cells. Experiments were run in PBS as a medium without calcium and magnesium ions, not to favor neutrophil and monocyte activation.
(§4) Aliquots of cell suspension without or with CAMPs at different concentrations were incubated at 37 °C for 0.5 h. Then, the assay steps were carried out. In each experiment, there were both mononuclear cells and neutrophils from the same healthy subject.
(§5) The cytolytic activity of CAMPs against mononuclear cells and neutrophils was determined using a lactate dehydrogenase (LDH) assay measuring LDH released upon cell lysis. Working cell suspensions in PBS supplemented with […] glucose were adjusted to an optical density of 0.12 at 800 nm, which corresponded to a cell density of about 600 × 10^3 cells/mL. LDH assay was performed using a Cytotoxicity Detection Kit^PLUS (LDH) (Roche Diagnostics, Mannheim, Germany) according to the manufacturer’s protocol. Then, 50 μL aliquots of CAMP solutions of different concentrations were placed in the wells of a microplate. The medium used for preparing CAMP solutions and the kit’s Lysis solution served for negative and positive controls, respectively. […]

[8] = test system: mononuclear cells; test: LDH release cytolysis assay, mononuclear cells; settings: 50 μM peptide, PBS, 0.5 h, 37 °C; Lysis solution = 100%
Protocol: as §3, §4, §5

[9] = test system: erythrocytes; test: Hemolysis assay in the presence of autologous plasma; type: cell-based, human
Protocol: The interaction with blood plasma constituents is known to play an important role in the pharmacokinetics and effectiveness of therapeutic agents. For CAMPs, the binding in plasma could decrease their effective concentration at the site of action and, thereby, their antimicrobial activity. To elucidate whether CAMP interaction with cells is affected by plasma, presumably through CAMP binding, we performed the hemolysis assay. The erythrocyte suspension was added to the same volume of PBS containing CAMP at two times the final concentration or PBS containing both CAMP and 20% autologous plasma. Calculations for extracellular hemoglobin were made based on the negative and positive control samples containing or not containing plasma.
The hemolytic activity of CAMPs was determined using a hemolysis assay measuring hemoglobin released from damaged cells. […] The supernatant (200 μL) was transferred to the wells of a microplate, and the absorbance of hemoglobin was measured by a Thermo Electron Multiskan Ascent microplate reader (Thermo Fisher Scientific Inc., Waltham, MA, USA), with a test wavelength of 414 nm as well as 540 nm and a background wavelength of 690 nm. The hemolysis percentage was calculated using the following equation: Hemolysis (%) = {(sample absorbance − negative control)/(positive control − negative control)} × 100.

RLKRFKRVALRREKTARNFRSIVS [pept_6, synthetic short cationic antimicrobial peptide designed by bioinformatic analysis of the medicinal leech genome and microbiome]
MIC (E. coli) [1]: >100 µM | Effect on PT [2]: no significant effect | APTT increase over the control value ([3]; 25 μM peptide in plasma): 1.3 fold | APTT increase over the control value ([3]; 50 μM peptide in plasma): 2.1 fold | APTT increase over the control value ([3]; 100 μM peptide in plasma): 2.9 fold

CC(C)C[C@H](NC(=O)[C@H](Cc1ccccc1)NC(=O)[C@H](CS)NC(=O)[C@@H](NC(=O)[C@H](CC(C)C)NC(=O)[C@H](CCCNC(=N)N)NC(=O)[C@H](Cc1c[nH]c2ccccc12)NC(=O)[C@@H](N)CCCNC(=N)N)C(C)C)C(=O)N[C@@H](CS)C(=O)N[C@@H](CCCNC(=N)N)C(=O)N[C@@H](CCCNC(=N)N)C(=O)N[C@@H](CCCCN)C(=O)N[C@@H](CCCCN)C(=O)N[C@H](C(N)=O)C(C)C [pept_3] (H-RWRLVCFLCRRKKV-NH2; N-terminus and C-terminus assumed)
MIC (E. coli) [1]: 17 µM (≈ 31.7 µg/mL) | Neutrophil respiratory burst (luminol-dependent chemiluminescence) in response to peptide-pretreated plasma [4]: CL increase, though relatively low | PT increase compared to control ([2]; 25 μM peptide in plasma): about 165% | PT increase compared to control ([2]; 50 μM peptide in plasma): 320% | PT increase compared to control ([2]; 100 μM peptide in plasma): ~780% | NET concentration versus control blood [5]: No significant difference | APTT prolongation versus control ([3]; 100 μM peptide in plasma): ~390% | Erythrocyte aggregation ([6]; 50 μM peptide in PBS, 0.5 h, 37 °C, glutaraldehyde fixation, light microscopy): induces erythrocyte aggregation | Erythrocyte aggregation, peptide preincubated with plasma ([6]; peptide preincubated with plasma): no cell aggregation was observed

RPILIRVRRIRVI-NH2 (C-terminus assumed) [pept_5]
MIC (E. coli) [1]: 77 µM | Neutrophil respiratory burst (luminol-dependent chemiluminescence) in response to peptide-pretreated plasma [4]: no development of the respiratory burst | Effect on PT [2]: not significantly affected | NET concentration versus control blood [5]: No significant difference | APTT change from the control value [3]: No significant APTT change | Lysis of neutrophils (LDH release) [7]: ~15% | Lysis of mononuclear cells (LDH release) [8]: about 20% | Effect of plasma on CAMP-induced hemolysis ([9]; 50 μM final peptide (100 μM mixed with five-fold diluted plasma)): complete inhibition | Effect of plasma on the hemolytic effect ([9]; 100 μM final peptide, autologous plasma final dilution 1:10, 0.5 h, 37 °C): completely inhibited

KFKKVIWKSFL-NH2 (C-terminus assumed) [pept_4]
MIC (E. coli) [1]: 90 µM | Neutrophil respiratory burst (luminol-dependent chemiluminescence) in response to peptide-pretreated plasma [4]: no development of the respiratory burst | Effect on PT [2]: not significantly affected | NET concentration versus control blood [5]: No significant difference | APTT change from the control value [3]: No significant APTT change

CCCCCCCCCCCCCC(=O)O[C@@H]1[C@@H](C)[C@@]2(O)[C@@H](C=C(CO)C[C@]3(O)C(=O)C(C)=C[C@@H]23)[C@@H]2C(C)(C)[C@]12OC(C)=O [PMA, phorbol-12-myristate-13-acetate, reference compound]
ROS production by neutrophils (luminol-dependent chemiluminescence) ([4]; PMA added after CAMP-containing plasma, final 160 nM): induced a high ROS production | Neutrophil activation in whole blood (morphology) ([5]; 100 nM, with or without CAMPs): resulted in neutrophil activation

FLIGKAIKRKFCLRSVWNA [pept_7, synthetic short cationic antimicrobial peptide designed by bioinformatic analysis of the medicinal leech genome and microbiome]
MIC (E. coli) [1]: 14.3 µM | Effect on PT [2]: did not cause significant changes | APTT change from the control value [3]: did not cause significant changes

RAVIYKIPYNAIASRWIIAPKKC [pept_8, synthetic short cationic antimicrobial peptide designed by bioinformatic analysis of the medicinal leech genome and microbiome]
MIC (E. coli) [1]: 24 µM | APTT prolongation versus control ([3]; 100 μM peptide in plasma): about 45%
